Results published in ChEMBL document CHEMBL5518240 (J Med Chem, 2024).

Tests used:
[1] = Clearance in male ICR mouse at 1 mg/kg, iv measured upto 24 hrs by LC-MS/MS analysis; assay type: ADME, organism-based; details: in vivo
[2] = Apparent permeability coefficient across apical to basolateral side in human Caco-2 cells at 10 uM incubated for 120 mins by LC-MS/MS analysis; assay type: ADME, cell-based; details: caco-2, 2 h
[3] = target: T1, Protein cereblon/CREB-binding protein (Homo sapiens, UniProt Q92793+Q96SW2); test: In vivo PROTAC activity at CBP/CRBN in human VCaP cells xenografted in SCID mouse assessed as reduction in CBP protein at 1 mg/kg, po measured after 3 hrs; assay type: functional, organism-based; parameters: scale not given: the % may be the effect or the level left
Target sequence in this assay (Q92793 2-2442 limits assumed): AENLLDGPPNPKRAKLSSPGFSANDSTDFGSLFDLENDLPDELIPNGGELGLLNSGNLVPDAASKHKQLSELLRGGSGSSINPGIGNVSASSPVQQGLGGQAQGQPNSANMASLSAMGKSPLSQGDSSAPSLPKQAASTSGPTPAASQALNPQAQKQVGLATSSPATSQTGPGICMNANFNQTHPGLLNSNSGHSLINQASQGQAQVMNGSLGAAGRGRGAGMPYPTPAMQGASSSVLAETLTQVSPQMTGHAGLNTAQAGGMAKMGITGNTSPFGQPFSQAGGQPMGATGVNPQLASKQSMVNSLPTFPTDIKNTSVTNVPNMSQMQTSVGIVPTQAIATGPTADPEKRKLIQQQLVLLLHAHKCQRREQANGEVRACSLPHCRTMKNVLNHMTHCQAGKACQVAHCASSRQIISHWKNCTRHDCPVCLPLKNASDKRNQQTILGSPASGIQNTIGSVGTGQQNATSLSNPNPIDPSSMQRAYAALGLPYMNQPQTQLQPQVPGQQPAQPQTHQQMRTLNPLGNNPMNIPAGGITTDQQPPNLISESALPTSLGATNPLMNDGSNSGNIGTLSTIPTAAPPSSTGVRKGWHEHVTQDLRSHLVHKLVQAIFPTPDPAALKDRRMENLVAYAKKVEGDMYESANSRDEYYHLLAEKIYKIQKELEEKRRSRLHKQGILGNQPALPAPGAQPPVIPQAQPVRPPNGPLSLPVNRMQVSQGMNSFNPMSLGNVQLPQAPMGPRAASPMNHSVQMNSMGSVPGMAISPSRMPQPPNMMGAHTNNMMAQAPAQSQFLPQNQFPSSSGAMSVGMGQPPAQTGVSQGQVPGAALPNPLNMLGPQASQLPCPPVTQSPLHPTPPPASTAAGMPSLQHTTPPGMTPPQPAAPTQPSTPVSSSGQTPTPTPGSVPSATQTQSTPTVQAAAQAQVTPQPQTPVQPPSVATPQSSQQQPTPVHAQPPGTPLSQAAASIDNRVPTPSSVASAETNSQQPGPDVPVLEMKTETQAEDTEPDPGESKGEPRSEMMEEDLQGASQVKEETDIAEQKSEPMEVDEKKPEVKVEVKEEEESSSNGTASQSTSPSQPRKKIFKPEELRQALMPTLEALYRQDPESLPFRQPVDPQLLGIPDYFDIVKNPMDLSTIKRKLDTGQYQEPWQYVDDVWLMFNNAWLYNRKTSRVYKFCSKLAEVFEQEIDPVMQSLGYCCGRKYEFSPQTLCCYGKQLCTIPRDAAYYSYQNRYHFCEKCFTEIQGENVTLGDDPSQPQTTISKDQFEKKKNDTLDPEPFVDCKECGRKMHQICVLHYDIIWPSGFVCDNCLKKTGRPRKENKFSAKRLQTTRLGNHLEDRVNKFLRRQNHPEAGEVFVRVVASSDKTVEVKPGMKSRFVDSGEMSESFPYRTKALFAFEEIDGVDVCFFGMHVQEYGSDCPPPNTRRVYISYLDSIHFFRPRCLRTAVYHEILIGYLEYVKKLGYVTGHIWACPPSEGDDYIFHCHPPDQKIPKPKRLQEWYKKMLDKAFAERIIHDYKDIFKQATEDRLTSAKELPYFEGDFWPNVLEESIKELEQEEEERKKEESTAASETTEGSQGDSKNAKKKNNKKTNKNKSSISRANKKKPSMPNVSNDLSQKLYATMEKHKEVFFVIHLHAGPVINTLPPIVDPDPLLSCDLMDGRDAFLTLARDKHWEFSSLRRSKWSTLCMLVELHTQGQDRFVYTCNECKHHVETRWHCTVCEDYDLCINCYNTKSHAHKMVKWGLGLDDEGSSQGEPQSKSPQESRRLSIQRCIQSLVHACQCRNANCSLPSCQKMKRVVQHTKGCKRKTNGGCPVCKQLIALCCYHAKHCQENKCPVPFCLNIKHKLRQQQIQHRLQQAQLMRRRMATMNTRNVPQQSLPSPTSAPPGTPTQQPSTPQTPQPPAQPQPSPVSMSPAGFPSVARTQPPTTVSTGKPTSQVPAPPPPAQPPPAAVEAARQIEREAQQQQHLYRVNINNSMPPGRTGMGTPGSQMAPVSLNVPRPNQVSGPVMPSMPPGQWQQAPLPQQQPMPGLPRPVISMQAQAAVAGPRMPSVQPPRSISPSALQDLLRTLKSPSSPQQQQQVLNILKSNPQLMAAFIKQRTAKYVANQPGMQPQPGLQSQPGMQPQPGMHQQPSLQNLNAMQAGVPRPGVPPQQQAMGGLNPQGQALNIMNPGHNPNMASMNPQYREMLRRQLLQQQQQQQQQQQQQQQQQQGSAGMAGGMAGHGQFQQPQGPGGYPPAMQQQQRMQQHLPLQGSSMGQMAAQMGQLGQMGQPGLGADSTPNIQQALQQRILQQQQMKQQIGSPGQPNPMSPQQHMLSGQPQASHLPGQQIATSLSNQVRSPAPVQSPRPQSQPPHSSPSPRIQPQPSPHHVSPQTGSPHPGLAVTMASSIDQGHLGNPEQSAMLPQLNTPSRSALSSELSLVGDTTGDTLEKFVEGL
Target sequence in this assay (Q96SW2 whole entry partner): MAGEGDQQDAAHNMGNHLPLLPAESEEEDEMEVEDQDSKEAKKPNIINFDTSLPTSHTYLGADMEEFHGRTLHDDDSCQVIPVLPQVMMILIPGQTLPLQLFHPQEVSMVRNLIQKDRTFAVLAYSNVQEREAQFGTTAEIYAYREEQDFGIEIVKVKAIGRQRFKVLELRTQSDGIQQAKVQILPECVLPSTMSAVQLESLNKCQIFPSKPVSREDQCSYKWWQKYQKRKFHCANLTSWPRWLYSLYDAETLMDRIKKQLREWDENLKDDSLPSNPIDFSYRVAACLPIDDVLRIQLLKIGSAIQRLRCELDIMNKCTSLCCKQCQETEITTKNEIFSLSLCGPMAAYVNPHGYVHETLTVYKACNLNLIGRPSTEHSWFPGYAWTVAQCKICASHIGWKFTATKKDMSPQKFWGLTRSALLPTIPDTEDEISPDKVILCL

[4] = Volume of distribution at steady state in male ICR mouse at 1 mg/kg, iv measured upto 24 hrs by LC-MS/MS analysis; assay type: ADME, organism-based; details: in vivo, read-out: Vdss
[5] = system: CWR22R; test: Potency index, ratio of ARV-110 IC50 to test compound IC50 for antiproliferative activity against AR positive human 22Rv1 cells assessed inhibition of cell growth measured after 4 days by CellTiter-Glo Luminescent cell viability assay; assay type: functional; details: time 4 day
[6] = Toxicity in CB17 SCID mouse xenografted with human VCaP cells assessed as weight loss at 0.3 to 1 mg/kg, po qd scheduled 5 days in a week measured on day 63; assay type: organism-based; details: in vivo, 1512 h, dose 0.3-1 mg/kg, time 63 day
[7] = target: T1, Protein cereblon/CREB-binding protein; test: PROTAC activity at CBP/CRBN in human LNCaP cells assessed as protein degradation incubated for 4 hrs by Western blot analysis; assay type: cell-based
[8] = system: CWR22R; test: Reduction in KLK3 gene expression in AR positive human 22Rv1 cells assessed as reduction in mRNA level measured after 6 hrs by qRT-PCT analysis relative to control; assay type: functional, cell-based; details: dose 0.1-1000 nM
[9] = target: T2, Protein cereblon/Histone acetyltransferase p300 (Homo sapiens, UniProt Q09472+Q96SW2); test: PROTAC activity at p300/CRBN in AR positive human VCaP cells assessed as maximal protein degradation at 1000 nM incubated for 4 hrs by Western blot analysis relative to control; assay type: cell-based
[10] = Efflux ratio of apparent permeability coefficient across basolateral to apical side over apical to basolateral side in human Caco-2 cells at 10 uM incubated for 120 mins by LC-MS/MS analysis; assay type: ADME, cell-based; details: caco-2, 2 h
[11] = Drug exposure in CB17 SCID mouse xenografted with human VCaP cells assessed compound concentration in tumor at 3 mg/kg, po measured after 3 hrs by LC-MS/MS analysis; assay type: ADME, organism-based, Neoplasm; details: read-out: Drug uptake
[12] = target: T2, Protein cereblon/Histone acetyltransferase p300; test: PROTAC activity at p300/CRBN in AR positive human VCaP cells assessed as maximal protein degradation at 1.4 nM incubated for 4 hrs by Western blot analysis relative to control; assay type: cell-based
[13] = system: CWR22R; test: Antiproliferative activity against AR positive human 22Rv1 cells assessed inhibition of cell growth measured after 4 days by CellTiter-Glo Luminescent cell viability assay; assay type: functional, cell-based; details: 22Rv1, 96 h
[14] = target: T1, Protein cereblon/CREB-binding protein; test: In vivo PROTAC activity at p300/CRBN in human VCaP cells xenografted in CB17 SCID mouse assessed as reduction in CBP protein at 1 mg/kg, po measured after 24 hrs; assay type: functional, organism-based; parameters: scale not given: the % may be the effect or the level left
Target sequence in this assay (Q92793 2-2442 limits assumed): as the sequence (Q92793 2-2442 limits assumed) above
Target sequence in this assay (Q96SW2 whole entry partner): as the sequence (Q96SW2 whole entry partner) above

[15] = target: T1, Protein cereblon/CREB-binding protein; test: In vivo PROTAC activity at p300/CRBN in human VCaP cells xenografted in CB17 SCID mouse assessed as reduction in CBP protein at 1 mg/kg, po measured after 3 hrs; assay type: functional, organism-based; parameters: scale not given: the % may be the effect or the level left
Target sequence in this assay (Q92793 2-2442 limits assumed): as the sequence (Q92793 2-2442 limits assumed) above
Target sequence in this assay (Q96SW2 whole entry partner): as the sequence (Q96SW2 whole entry partner) above

[16] = target: T2, Protein cereblon/Histone acetyltransferase p300; test: PROTAC activity at p300/CRBN in human 22Rv1 cells assessed as reduction in protein level at 100 nM incubated for 4 hrs by multiplexed quantitative proteomics analysis relative to control; assay type: cell-based; parameters: scale not given: the % may be the effect or the level left
[17] = target: T2, Protein cereblon/Histone acetyltransferase p300; test: PROTAC activity at p300/CRBN in human LNCaP cells assessed as protein degradation incubated for 4 hrs by Western blot analysis; assay type: cell-based
[18] = target: T2, Protein cereblon/Histone acetyltransferase p300; test: PROTAC activity at p300/CRBN in AR positive human VCaP cells assessed as maximal protein degradation at 37 nM incubated for 4 hrs by Western blot analysis relative to control; assay type: cell-based
[19] = Toxicity in CB17 SCID mouse xenografted with human VCaP cells assessed as signs of toxicity at 0.3 to 1 mg/kg, po qd scheduled 5 days in a week measured on day 63; assay type: organism-based; details: in vivo, 120 h, dose 0.3-1 mg/kg, time 5 day
[20] = system: VCaP; test: Reduction in KLK3 gene expression in AR positive human VCaP cells assessed as reduction in mRNA level measured after 6 hrs by qRT-PCT analysis relative to control; assay type: functional, cell-based; details: dose 0.1-1000 nM
[21] = system: VCaP; test: Antitumor activity against human VCaP cells xenografted in CB17 SCID mouse model assessed as tumor growth inhibition at 1 mg/kg, po qod scheduled 5 days in a week measured on day 63; assay type: functional; details: 1512 h, time 63 day, read-out: TGI
[22] = Cmax in male ICR mouse at 3 mg/kg, po measured upto 24 hrs by LC-MS/MS analysis; assay type: ADME, organism-based; details: in vivo
[23] = Reduction in c-Myc gene expression in AR positive human LNCaP cells assessed as reduction in mRNA level at 10 nM measured after 6 hrs by qRT-PCT analysis relative to control; assay type: functional
[24] = Half life in male ICR mouse at 3 mg/kg, po measured upto 24 hrs by LC-MS/MS analysis; assay type: ADME, organism-based; details: in vivo

In the case of CC(=O)N1CCc2c(c(N3CCCc4cc(-c5cnn(C)c5)c(C(F)F)cc43)nn2[C@H]2CC[C@H](CN3CCN(c4ccc5c(c4)C(=O)N(C4CCC(=O)NC4=O)C5=O)CC3)CC2)C1 (some centres undefined), the clearance [1] is reported as 1.7 mL/min/kg, the Papp [2] is reported as 2.8 10^-6 cm/s and the Activity [3] is reported as greater than 95%. For the same compound, the Vd [4] was 0.4 L/kg, the “Ratio IC50” value [5] was greater than 50 and the Activity [6] was “Non-Toxic”. The DC50 [7] was 0.3 nM, the inhibition [8] was “Dose-Dependent Effect” and the Activity [9] was 75%. It also gave a Ratio [10] of 1.2, a concentration at 3 h [11] of 141 ng/mL and an Activity [12] of 97%. The IC50 [13] was 1.2 nM, the Activity [14] was greater than 95% and the Activity [15] was greater than 95%. It also gave an Activity [16] of 79%, a DC50 [17] of 0.4 nM and an Activity [18] of 100%. For the same compound, the Activity [19] was “Non-Toxic”, the inhibition [20] was “Dose-Dependent Effect” and the inhibition in vivo at 1 mg/kg [21] was 71%. The Cmax [22] was 2490 ng/mL, the inhibition at 0.01 µM [23] was greater than 95% and the half-life [24] was 2.6 h.
